Laboratory results from patent publication US20170035708A1, “USE OF N-(4-TERT-BUTYLBENZYL)-3-CHLORO-N-[2-(4-CHLORO-3-ETHYL-PHENYL)-ETHYL]-2-FLUORO-5-TRIFLUOROMETHYL-BENZAMIDE FOR THE TREATMENT OF EYE DISEASES” (Hoffmann-La Roche Inc., priority 2013, published 2017).
Several values for one entry are separate records, joined by “and”; a condition that tells them apart may be missing. Identical values can stand only once.

Legend:
CETP activity [1] = experiment: In vivo inhibition of CETP activity in hamsters
scavenger receptor SRB1 = experiment: Cholesterol efflux from cells; type: cell-based; conditions: via scavenger receptor SRB1
Excerpt: (§1) N-(4-tert-Butyl-benzyl)-3-chloro-N-[2-(4-chloro-3-ethyl-phenyl)-ethyl]-2-fluoro-5-trifluoromethyl-benz-amide is a potent inhibitor of cholesteryl ester transfer protein (CETP), which was originally developed for the treatment of dyslipidemia and prevention of cardiovascular events. The clinical development was discontinued in 2009 due to strategic portfolio decision; the discontinuation was not due to the safety profile of the product. […] Liquid-filled hard capsules in the dose strength of 60 mg have been developed.

[2] = molecular target: T1, cholesteryl ester transfer protein (CETP) (Homo sapiens, UniProt P11597); experiment: In vitro inhibition of CETP activity; type: biochemical
T1 sequence (P11597 18-493): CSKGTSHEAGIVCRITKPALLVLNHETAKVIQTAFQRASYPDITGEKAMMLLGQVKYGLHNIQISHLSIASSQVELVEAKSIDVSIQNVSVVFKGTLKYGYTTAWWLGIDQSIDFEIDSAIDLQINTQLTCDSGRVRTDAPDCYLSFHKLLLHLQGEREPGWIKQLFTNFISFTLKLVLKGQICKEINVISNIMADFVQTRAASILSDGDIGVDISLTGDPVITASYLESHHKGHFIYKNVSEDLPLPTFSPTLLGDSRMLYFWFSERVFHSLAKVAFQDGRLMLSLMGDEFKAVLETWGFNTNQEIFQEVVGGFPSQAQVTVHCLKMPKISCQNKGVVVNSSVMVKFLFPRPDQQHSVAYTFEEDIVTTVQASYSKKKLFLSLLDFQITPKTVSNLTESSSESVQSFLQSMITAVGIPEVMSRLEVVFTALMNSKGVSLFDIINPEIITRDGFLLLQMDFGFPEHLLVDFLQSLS

Membrane permeability = type: in vitro ADME
Method: (§2) The pharmacokinetic (PK) properties of N-(4-tert-Butyl-benzyl)-3-chloro-N-[2-(4-chloro-3-ethyl-phenyl)-ethyl]-2-fluoro-5-trifluoromethyl-benz-amide were assessed in the rat and cynomolgus monkey. […] The very high protein binding, in combination with moderate membrane permeability, is the likely cause for the low volume of distribution observed in vivo.

[3] = Physicochemical properties (solubility, stability, lipophilicity)
Excerpt: as §1, §2

plasma CETP activity = molecular target: T2, plasma CETP activity (Homo sapiens, UniProt P11597); experiment: Plasma CETP activity and CETP mass in combined SAD/MAD clinical study; type: in vivo
T2 construct: from tissue; host or cells: plasma of study subjects
T2 sequence (P11597 18-493): T1 sequence (P11597 18-493)
Method: The main difference between the different doses was the duration of the inhibition, which was sustained for 24 hours with the two highest tested multiple dose levels (180 mg and 420 mg). […] After multiple doses of N-(4-tert-Butyl-benzyl)-3-chloro-N-[2-(4-chloro-3-ethyl-phenyl)-ethyl]-2-fluoro-5-trifluoromethyl-benz-amide for 14 days, a similar trend in CETP inhibition was observed.

CETP activity [4] = molecular target: T3, CETP activity (Macaca fascicularis, UniProt P47896); experiment: In vivo inhibition of CETP activity in cynomolgus monkeys
T3 construct: from tissue; host or cells: cynomolgus monkey, in vivo (endogenous circulating CETP)
T3 sequence (P47896 18-493): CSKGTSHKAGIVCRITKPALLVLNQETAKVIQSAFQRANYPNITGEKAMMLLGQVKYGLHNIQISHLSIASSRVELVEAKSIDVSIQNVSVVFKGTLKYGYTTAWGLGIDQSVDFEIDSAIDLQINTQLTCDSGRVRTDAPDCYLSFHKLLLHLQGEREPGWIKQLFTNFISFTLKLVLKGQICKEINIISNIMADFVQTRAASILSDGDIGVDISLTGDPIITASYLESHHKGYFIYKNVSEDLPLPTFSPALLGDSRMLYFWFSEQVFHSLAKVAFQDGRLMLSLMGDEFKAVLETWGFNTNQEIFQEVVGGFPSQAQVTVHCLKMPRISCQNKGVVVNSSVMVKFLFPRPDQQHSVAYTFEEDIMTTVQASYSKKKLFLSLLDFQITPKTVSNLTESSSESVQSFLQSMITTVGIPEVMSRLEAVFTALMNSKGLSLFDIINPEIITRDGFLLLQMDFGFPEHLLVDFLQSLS

[5] = system: 50 pharmacologically relevant receptors; experiment: Binding screen on 50 pharmacologically relevant receptors; conditions: concentration of 10 μM

IC50 [2]: 8 nM and 7.21 nM
membrane permeability (Membrane permeability): moderate
lipophilicity [3]: highly lipophilic
solubility in aqueous media ([3]; aqueous media): practically insoluble
dissolution rate ([3]; as cause of limited absorption): low
solubility ([3]; as cause of limited absorption): low
solubility in common organic solvents ([3]; common organic solvents): soluble
stability of the powder ([3]; white to off-white powder): stable
inhibition of plasma CETP activity (plasma CETP activity; first measurement, 2 hours post-dose, Day 1, all doses, healthy and mildly dyslipidemic subjects): Complete CETP inhibition
duration of the CETP inhibition (plasma CETP activity; two highest multiple dose levels (180 mg and 420 mg)): 24 h
binding to 50 pharmacologically relevant receptors [5]: no significant binding
SMILES: CCc1cc(CCN(Cc2ccc(C(C)(C)C)cc2)C(=O)c2cc(C(F)(F)F)cc(Cl)c2F)ccc1Cl [Compound 1, N-(4-tert-Butyl-benzyl)-3-chloro-N-[2-(4-chloro-3-ethyl-phenyl)-ethyl]-2-fluoro-5-trifluoromethyl-benzamide]
inhibition of CETP activity in vivo (CETP activity [1]): inhibition of CETP activity has been demonstrated
cholesterol efflux from cells (scavenger receptor SRB1): efflux cholesterol from cells via scavenger receptor SRB1
CETP mass (plasma CETP activity; after multiple doses): dose-dependent and time-dependent increase
inhibition of CETP activity in vivo (CETP activity [4]): inhibition of CETP activity has been demonstrated
